In PubChem BioAssay (NCI):
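Dose response: 5 concentrations. Exposure: 48 h. Format: 96-well plates. Endpoint: linear interpolation; highest concentration if not reached. GI50 is the concentration that inhibits growth by half. TGI marks complete inhibition of growth.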

Legend:
Experiment in all cases: NCI anticancer screen, dose series, 48 h
[1] = tested on: SNB-19 CNS
[2] = tested on: NCI-H23 lung
[3] = tested on: BT-549 breast
[4] = tested on: HOP-92 NSCLC
[5] = tested on: OVCAR-3 ovarian
[6] = tested on: SF-295 CNS
[7] = tested on: SK-MEL-5 melanoma
[8] = tested on: UACC-257 melanoma
[9] = tested on: SF-268 CNS
[10] = tested on: HCT-116 colon
[11] = tested on: K-562 leukemia
[12] = tested on: OVCAR-8 ovarian
[13] = tested on: NCI-H522 lung
[14] = tested on: SK-OV-3 ovarian
[15] = tested on: UACC-62 melanoma
[16] = tested on: HL-60(TB) leukemia
[17] = tested on: OVCAR-5 ovarian
[18] = tested on: A498 renal
[19] = tested on: SNB-75 CNS
[20] = tested on: SK-MEL-2 melanoma
[21] = tested on: T-47D breast
[22] = tested on: NCI/ADR-RES ovarian
[23] = tested on: MDA-MB-231 breast
[24] = tested on: TK-10 renal
[25] = tested on: SR leukemia
[26] = tested on: SK-MEL-28 melanoma
[27] = tested on: NCI-H460 lung
[28] = tested on: SW-620 colon
[29] = tested on: SF-539 CNS
[30] = tested on: KM12 colon
[31] = tested on: COLO 205 colon
[32] = tested on: OVCAR-4 ovarian
[33] = tested on: 786-0 renal
[34] = tested on: RPMI-8226 leukemia
[35] = tested on: DU-145 prostate
[36] = tested on: A549 NSCLC
[37] = tested on: RXF 393 renal
[38] = tested on: PC-3 prostate
[39] = tested on: HT29 colon
[40] = tested on: MOLT-4 leukemia
[41] = tested on: EKVX NSCLC
[42] = tested on: CAKI-1 renal
[43] = tested on: IGROV1 ovarian
[44] = tested on: UO-31 renal
[45] = tested on: LOX IMVI melanoma
[46] = tested on: SN12C renal
[47] = tested on: M14 melanoma
[48] = tested on: HCT-15 colon
[49] = tested on: HCC-2998 colon
[50] = tested on: NCI-H226 lung
[51] = tested on: U251 CNS
[52] = tested on: MCF7 breast
[53] = tested on: MALME-3M melanoma
[54] = tested on: HOP-62 NSCLC
[55] = tested on: ACHN renal
[56] = tested on: MDA-MB-435
[57] = tested on: HS 578T breast
[58] = tested on: CCRF-CEM leukemia

Cc1ccc(S(=O)(=O)NC2=NS(=O)(=O)c3cc(C)c(Cl)cc3S2)cc1
TGI [1]: > 100 µM
TGI [2]: > 100 µM
TGI [3]: > 100 µM
TGI [4]: > 100 µM
TGI [5]: > 100 µM
TGI [6]: > 100 µM
TGI [7]: > 100 µM
TGI [8]: > 100 µM
TGI [9]: > 100 µM
TGI [10]: > 100 µM
TGI [11]: > 100 µM
TGI [12]: > 100 µM
TGI [13]: > 100 µM
TGI [14]: > 100 µM
TGI [15]: > 100 µM
TGI [16]: > 100 µM
TGI [17]: > 100 µM
TGI [18]: > 100 µM
TGI [19]: > 100 µM
TGI [20]: > 100 µM
TGI [21]: > 100 µM
TGI [22]: > 100 µM
TGI [23]: > 100 µM
TGI [24]: > 100 µM
TGI [25]: > 100 µM
TGI [26]: > 100 µM
TGI [27]: > 100 µM
TGI [28]: > 100 µM
TGI [29]: > 100 µM
TGI [30]: > 100 µM
TGI [31]: > 100 µM
TGI [32]: > 100 µM
TGI [33]: > 100 µM
TGI [34]: > 100 µM
TGI [35]: > 100 µM
TGI [36]: > 100 µM
TGI [37]: > 100 µM
TGI [38]: > 100 µM
TGI [39]: > 100 µM
TGI [40]: > 100 µM
TGI [41]: > 100 µM
TGI [42]: > 100 µM
TGI [43]: > 100 µM
TGI [44]: > 100 µM
TGI [45]: > 100 µM
TGI [46]: > 100 µM
TGI [47]: > 100 µM
TGI [48]: > 100 µM
TGI [49]: > 100 µM
TGI [50]: > 100 µM
TGI [51]: > 100 µM
TGI [52]: > 100 µM
TGI [53]: > 100 µM
TGI [54]: > 100 µM
TGI [55]: > 100 µM
TGI [56]: > 100 µM
TGI [57]: > 100 µM

CN(C)CCNC(=O)c1cc2c3ccccc3[nH]c2c2ncccc12
GI50 [1]: 14.7 µM
TGI [1]: 93.2 µM
GI50 [2]: 11.6 µM
TGI [2]: 32.6 µM
GI50 [3]: 6.36 µM
TGI [3]: 20.7 µM
GI50 [4]: 8.01 µM
TGI [4]: 40.6 µM
GI50 [5]: 0.0254 µM
TGI [5]: 16.8 µM
GI50 [7]: 6.05 µM
TGI [7]: 20.1 µM
GI50 [8]: 10.4 µM
TGI [8]: 88.1 µM
GI50 [9]: 6.37 µM
TGI [9]: 23.7 µM
GI50 [10]: 3.95 µM
TGI [10]: 25.3 µM
GI50 [11]: 9.05 µM
TGI [11]: 26.2 µM
GI50 [12]: 6.11 µM
TGI [12]: 40.9 µM
GI50 [13]: 7.08 µM
TGI [13]: 24.5 µM
GI50 [14]: 23.5 µM
TGI [14]: > 100 µM
GI50 [15]: 13.4 µM
TGI [15]: 28 µM
GI50 [16]: 10.2 µM
TGI [16]: 30 µM
GI50 [17]: 20.6 µM
TGI [17]: 68.3 µM
GI50 [18]: 7.82 µM
TGI [18]: 21.4 µM
GI50 [19]: 5.44 µM
TGI [19]: 21.4 µM
GI50 [20]: 9.15 µM
TGI [20]: 72.5 µM
GI50 [21]: 18.4 µM
TGI [21]: > 100 µM
GI50 [22]: 22.5 µM
TGI [22]: > 100 µM
GI50 [23]: 5.25 µM
TGI [23]: 26.8 µM
GI50 [24]: 8.99 µM
TGI [24]: 54.7 µM
GI50 [25]: 3.34 µM
TGI [25]: 13.2 µM
GI50 [26]: 15.3 µM
TGI [26]: 29.9 µM
GI50 [27]: 4.17 µM
TGI [27]: 18.4 µM
GI50 [28]: 4.24 µM
TGI [28]: 24.9 µM
GI50 [29]: 8.87 µM
TGI [29]: 21.1 µM
GI50 [30]: 12.8 µM
TGI [30]: 77.4 µM
GI50 [31]: 2.95 µM
TGI [31]: 16.5 µM
GI50 [32]: 8.48 µM
TGI [32]: 47.7 µM
GI50 [33]: 15.2 µM
TGI [33]: 53.5 µM
GI50 [34]: 6.01 µM
TGI [34]: 22.7 µM
GI50 [35]: 11.5 µM
TGI [35]: 30.7 µM
GI50 [36]: 6.46 µM
TGI [36]: 36.9 µM
GI50 [37]: 6.08 µM
TGI [37]: 20.1 µM
GI50 [38]: 9.14 µM
TGI [38]: 34.2 µM
GI50 [39]: 5.27 µM
TGI [39]: 34.1 µM
GI50 [40]: 3.46 µM
TGI [40]: 16.5 µM
GI50 [41]: 7.81 µM
TGI [41]: 38.2 µM
GI50 [42]: 0.515 µM
TGI [42]: 12.3 µM
GI50 [43]: 1.14 µM
TGI [43]: 19.1 µM
GI50 [44]: 2.13 µM
TGI [44]: 24.3 µM
GI50 [58]: 3.46 µM
TGI [58]: 15.8 µM
GI50 [45]: 4.14 µM
TGI [45]: 17.5 µM
GI50 [46]: 7.36 µM
TGI [46]: 39.2 µM
GI50 [47]: 12.1 µM
TGI [47]: 27.2 µM
GI50 [48]: 5.88 µM
TGI [48]: 25 µM
GI50 [50]: 9.8 µM
TGI [50]: 39.6 µM
GI50 [51]: 12.2 µM
TGI [51]: 37 µM
GI50 [52]: 4.53 µM
TGI [52]: 20.9 µM
GI50 [53]: 10.7 µM
TGI [53]: 26.5 µM
GI50 [54]: 11.1 µM
TGI [54]: 37.5 µM
GI50 [55]: 4.24 µM
TGI [55]: 28 µM
GI50 [56]: 2.89 µM
TGI [56]: 15.4 µM
GI50 [57]: 3.57 µM
TGI [57]: 28.1 µM
